Measured values reported in patent US6902740B2, “Pyrrolidonoethyl (meth)acrylate containing pressure sensitive adhesive compositions” (3M Innovative Properties Company, priority 2001, dated 2005).

Assays:
[1] = Accelerated drug solubility method (seeded crystal growth) in pressure sensitive adhesive; type: physicochemical
Method: The solubility of several drugs in IOA/PyEA 60/40 pressure sensitive adhesive copolymer was determined using an accelerated method which is described in detail below. Drug solubility in an IOA pressure sensitive adhesive homopolymer was used for comparison purposes.
In the accelerated drug solubility method, drug and pressure sensitive adhesive mixtures are made up over a wide range of drug concentrations and then these mixtures are seeded on their surface with pure drug crystal. If the crystals grow over time (typically one week) then the mixture is above the saturation concentration.
Separate stock solutions containing pressure sensitive adhesive in ethyl acetate and drug in a suitable solvent such as ethyl acetate or acetonitrile are prepared. The stock solutions are used to prepare 3 gram batches of drug and pressure sensitive adhesive solution. The amount of each stock solution needed is determined using the following equations, [formula] [formula] where: • C is the desired concentration of drug in pressure sensitive adhesive after solvent removal; • CDS is the concentration of drug in the drug stock solution; • CPS is the concentration of pressure sensitive adhesive in the polymer stock solution; • WDS is the weight in grams of drug stock solution; and • WPS is the weight in grams of pressure sensitive adhesive stock solution.
The calculated amounts of drug stock solution and pressure sensitive adhesive stock solution are combined in a glass vial. The vial is capped then shaken to provide a homogeneous solution.
Under a nitrogen atmosphere (e.g., in a glove box) individual drops of the drug and pressure sensitive adhesive solution are placed on a microscope slide and allowed to dry. Additional drops of solution are applied to each original spot until the spot is covered. The second application is allowed to dry. Applications are continued until a 2-3 mil (51-76 μm) layer has been built up. After the final application the slide is allowed to sit in the nitrogen atmosphere for at least 10 minutes.
The slide is removed from the nitrogen atmosphere and seeded with a very tiny amount of dry crystalline drug. A photomicrograph is taken to document the initial appearance of the crystalline “seeds”. Periodically (e.g., daily or weekly) additional photomicrographs are taken and compared with earlier photomicrographs to determine if seed crystal growth or seed crystal absorption is occurring.
The results are usually reported as a range. The low value indicates the highest concentration sample where no crystal growth is observed. The high value indicates the lowest concentration where crystal growth is observed. In some instances additional work may be performed to narrow the range to a single value.

[2] = Lerisetron solubility in PSA by absorption from receptor solution; type: physicochemical
Method: The solubility of the drug lerisetron in two PSAs was determined by measurement of absorption of the drug into the pressure sensitive adhesive in a heterogeneous system. Lerisetron was dissolved in a receptor solution of HBSS buffer/ethanol (85:15 w:w) to give an initial concentration of 7.94 mg/10 mL. The 100% saturation concentration of lerisetron in the receptor solution is 9.93 mg/10 mL. A defined weight of pressure sensitive adhesive was added to 10 mL of receptor solution and the receptor solution was stirred for 4 hours. After the 4 hours of stirring, the concentration of lerisetron in the receptor solution was measured using standard HPLC techniques. The difference in the initial amount of lerisetron and the final amount of lerisetron in the solution is assumed to have been absorbed by the pressure sensitive adhesive. A partition coefficient between the receptor solution and pressure sensitive adhesive can be calculated. The solubility of lerisetron in the pressure sensitive adhesive can subsequently be determined based on the partition coefficient and the previously determined solubility of lerisetron in the receptor solution.

[3] = in IOA homopolymer (comparison)

SMILES: CN1CCC(=C2c3ccccc3C=Cc3ccccc32)CC1 [Cyproheptadine]
- Drug Solubility in Pressure Sensitive Adhesive Copolymer [1, 3]: 5-6 g drug/100 g pressure sensitive adhesive copolymer
- Drug Solubility in Pressure Sensitive Adhesive Copolymer ([1]; in IOA/PyEA 60/40): 10-15 g drug/100 g pressure sensitive adhesive copolymer

SMILES: c1ccc(Cn2c(N3CCNCC3)nc3ccccc32)cc1 [Lerisetron, lerisetron]
- Lerisetron solubility in pressure sensitive adhesive ([2]; in Isooctyl Acrylate/Pyrrolidonoethyl Acrylate/Polymethyl Methacrylate Macromonomer (59/39/2)): 7%
- Lerisetron solubility in pressure sensitive adhesive ([2]; in Isooctyl Acrylate/Pyrrolidonoethyl Acrylate/Polymethyl Methacrylate Macromonomer (73/25/2)): 3%
- Lerisetron solubility in pressure sensitive adhesive ([2]; in control Isooctyl Acrylate/N-vinyl pyrrolidone/Polymethyl Methacrylate Macromonomer (77/20/3)): less than 1%

SMILES: C[C@]12CC[C@H]3[C@@H](CCC4=CC(=O)CC[C@@]43C)[C@@H]1CC[C@@H]2O [Testosterone]
- Drug Solubility in Pressure Sensitive Adhesive Copolymer [1, 3]: 0.5 g drug/100 g pressure sensitive adhesive copolymer
- Drug Solubility in Pressure Sensitive Adhesive Copolymer ([1]; in IOA/PyEA 60/40): 4 g drug/100 g pressure sensitive adhesive copolymer
